The values below come from US8106086B2, “Indoledione derivative” (MSD K.K., priority 2007, dated 2012).

Assay [1] is described as follows: activity of the optically resolved components of Production Example 1 (test not stated). The following applies: fractions from optical resolution on CHIRALPAK AD-H.
The target of another assay is T1, human LCE (Homo sapiens, UniProt Q9H5J4).
T1 sequence (Q9H5J4 1-265): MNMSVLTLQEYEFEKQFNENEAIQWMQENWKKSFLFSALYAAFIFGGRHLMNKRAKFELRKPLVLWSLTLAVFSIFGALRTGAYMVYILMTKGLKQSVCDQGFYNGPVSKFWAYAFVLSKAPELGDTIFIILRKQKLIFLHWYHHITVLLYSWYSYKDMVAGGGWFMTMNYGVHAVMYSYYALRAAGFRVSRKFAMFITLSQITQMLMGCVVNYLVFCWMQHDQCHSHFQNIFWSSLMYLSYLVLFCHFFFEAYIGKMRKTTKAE
Kind of assay: LCE enzyme activity inhibition test. Type of assay: biochemical. To be noted: palmitoyl CoA and [14C]-malonyl CoA, 37° C. for 90 minutes. The procedure:
The LCE enzyme activity inhibition test was carried out according to a modification of the method of Moon et al., J. Biol. Chem., Vol. 276, pp. 45358 to 45366 (2001). Namely, 1.0 μl of the diluted test compound was added to each well of a 96-well assay plate (Corning, 96-Well Assay Block). Next, 50 μl of a phosphate buffer solution (100 mM potassium phosphate buffer solution, pH 6.5) and 25 μl of a substrate solution (in 100 mM potassium phosphate buffer solution (pH 6.5), 4.0 μM rotenone, 80 μM fatty acid-free bovine serum albumin, 160 μM palmitoyl CoA, 80 μM malonyl CoA, 3.5 μM [^14C]-malonyl CoA (1.92 GBq/mmol, manufactured by Amersham) were added to each well. Further, 25 μl of an enzyme solution (in 100 mM potassium phosphate buffer solution (pH 6.5), 100 μg/ml human LCE) was added thereto. Then, the upper side of the plate was sealed up, and the plate was incubated with gently stirring at 37° C. for 90 minutes. Subsequently, 100 μl of 5 N HCl was added to each well. The reaction was ceased by stirring the assay plate at room temperature for 5 minutes and acyl CoA was hydrolyzed. Subsequently, the enzyme reaction solution in each well was adsorbed by each well of a 96-well GF/C filter plate (Perkin Elmer Unifilter 96GF/C) through which water had been preliminarily passed. After washing each well with water to remove unabsorbed malonyl CoA, the GF/C filter plate was dried at 50° C. for 60 minutes. Next, 30 μl of a scintilator (Perkin Elmer, Microschinti 0) was added to each well and the upper side of the plate was sealed up. The radioactivity of the thus fixed [^14C] was measured with a microplate scintillation counter (Perkin Elmer, Topcount) and the obtained value was referred to as the enzyme activity. The human LCE enzyme inhibition activity of the test compound was calculated, based on the radioactivity of the well containing test compound-free DMSO as a control.

For assay [2], the target named is T2, intracellular LCE in H2.35 cells originating in mouse liver (Mus musculus, UniProt Q920L5).
T2 construct: endogenous in cells; host or cells: H2.35 mouse liver cells
T2 sequence (Q920L5 1-267): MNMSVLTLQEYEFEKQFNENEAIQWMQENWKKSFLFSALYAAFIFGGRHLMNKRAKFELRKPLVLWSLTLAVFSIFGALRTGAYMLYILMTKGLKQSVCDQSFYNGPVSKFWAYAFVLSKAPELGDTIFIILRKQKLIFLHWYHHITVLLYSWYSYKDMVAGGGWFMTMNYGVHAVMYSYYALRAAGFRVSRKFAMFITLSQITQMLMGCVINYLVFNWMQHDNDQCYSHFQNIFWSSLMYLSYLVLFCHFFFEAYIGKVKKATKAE
As to the kind of experiment: Intracellular LCE activity inhibition test. The class given is cell-based. To be noted: [14C]-palmitoyl CoA, C18/C16 ratio by radio HPLC. The procedure: Cultured H2.35 cells originating in mouse liver were maintained in DMEM (GIBCO) containing 4% calf serum and 200 nM dexamethasone and cultured at 33° C. in the presence of 5% CO2. About 2.5×10^5 H2.35 cells were pipetted into a 24-well cell culture plate (Corning, 24-Well Cell Culture Cluster) and cultured overnight at 33° C. in the presence of 5% CO2. […] After culturing for 1 hour at 33° C. in the presence of 5% CO2, [^14C]-palmitoyl CoA (2.13 GBq/mmol, manufactured by Perkin Elmer) was added to each well and culture was conducted for additional 4 hours at 33° C. in the presence of 5% CO2. Next, each well was washed with ice-cooled phosphate-buffered physiological saline and 250 μl of 2M sodium hydroxide was added to cease the reaction. Then, the reaction solution in each well was transferred into a glass test tube and incubated at 70° C. for 1 hour. After adding 100 μl of a 5N hydrogen chloride solution, fatty acids were extracted with petroleum ether. Then [^14C]-labeled fatty acids were quantified by radio HPLC and the ratio of the amount of fatty acids having carbon chains consisting of 18 carbon atoms to the amount of those having carbon chains consisting of 16 carbon atoms (C18/C16 ratio) was calculated. The intracellular LCE inhibition activity of the test compound was calculated, based on the C18/C16 ratio of the well containing test compound-free DMSO as a control.

Structures are written as SMILES.

Consider `Cc1[nH]n(-c2ccccc2)c(=O)c1C1(C(F)(F)F)C(=O)N(c2ccccc2)C2=C1C(=O)CC(C)(C)C2` (centres unmarked) [3-(2,5-dihydro-3-methyl-5-oxo-1-phenyl-1H-pyrazol-4-yl)-3,5,6,7-tetrahydro-6,6-dimethyl-1-phenyl-3-trifluoromethyl-1H-indole-2,4-dione], for which, in assay [1], the “identified as being active” value was “active”.
For the compound `Cc1[nH]n(-c2ccc(-c3ccccc3)cc2)c(=O)c1C1(C(F)(F)F)C(=O)N(c2ccccc2)C2=C1C(=O)CC(C)(C)C2` (centres unmarked) [Production Example 42, 3-[2,5-dihydro-3-methyl-5-oxo-1-(biphenyl-4-yl)-1H-pyrazol-4-yl]-3,5,6,7-tetrahydro-6,6-dimethyl-1-phenyl-3-trifluoromethyl-1H-indole-2,4-dione], the IC50 was found to be 22 nM at human LCE and 25 nM in assay [2].
The matching figures for `Cc1[nH]n(-c2ccc(C(C)(C)C)cc2)c(=O)c1C1(C(F)(F)F)C(=O)N(c2ccccc2)C2=C1C(=O)CC(C)(C)C2` (centres unmarked) [Production Example 35, 3-[1-(4-tert-butylphenyl)-2,5-dihydro-3-methyl-5-oxo-1H-pyrazol-4-yl]-3,5,6,7-tetrahydro-6,6-dimethyl-1-phenyl-3-trifluoromethyl-1H-indole-2,4-dione]: 15 nM and 4.2 nM.
For `COc1ccc(-n2[nH]c(C)c(C3(C(F)(F)F)C(=O)N(c4ccccc4)C4=C3C(=O)CC(C)(C)C4)c2=O)cc1` (centres unmarked) [Production Example 26, 3-[2,5-dihydro-1-(4-methoxyphenyl)-3-methyl-5-oxo-1H-pyrazol-4-yl]-3,5,6,7-tetrahydro-6,6-dimethyl-1-phenyl-3-trifluoromethyl-1H-indole-2,4-dione], the 50% inhibitory concentration (IC50) in assay [2] was 3.1 nM.
In the case of `Cc1[nH]n(-c2ccc(C(F)(F)F)cc2)c(=O)c1C1(C(F)(F)F)C(=O)N(c2ccccc2)C2=C1C(=O)CC(C)(C)C2` (centres unmarked) [Production Example 29, 3-[2,5-dihydro-3-methyl-5-oxo-1-(4-trifluoromethylphenyl)-1H-pyrazol-4-yl]-3,5,6,7-tetrahydro-6,6-dimethyl-1-phenyl-3-trifluoromethyl-1H-indole-2,4-dione], the half-maximal inhibitory concentration (IC50) against human LCE came to 23 nM; in assay [2] it was 1.2 nM.
The matching figures for `Cc1[nH]n(-c2ccc(OC(C)C)cc2)c(=O)c1C1(C(F)(F)F)C(=O)N(c2ccccc2)C2=C1C(=O)CC(C)(C)C2` (centres unmarked) [Production Example 40, 3-[2,5-dihydro-1-(4-isopropoxyphenyl)-3-methyl-5-oxo-1H-pyrazol-4-yl]-3,5,6,7-tetrahydro-6,6-dimethyl-1-phenyl-3-trifluoromethyl-1H-indole-2,4-dione]: 30 nM and 38 nM.
With `Cc1[nH]n(-c2ccc(C#N)cc2)c(=O)c1C1(C(F)(F)F)C(=O)N(c2ccccc2)C2=C1C(=O)CC(C)(C)C2` (centres unmarked) [Production Example 31, 3-[1-(4-cyanophenyl)-2,5-dihydro-3-methyl-5-oxo-1H-pyrazol-4-yl]-3,5,6,7-tetrahydro-6,6-dimethyl-1-phenyl-3-trifluoromethyl-1H-indole-2,4-dione], the IC50 in assay [2] was 5.4 nM.
In the case of `Cc1[nH]n(-c2ccc(S(C)(=O)=O)cc2)c(=O)c1C1(C(F)(F)F)C(=O)N(c2ccccc2)C2=C1C(=O)CC(C)(C)C2` (centres unmarked) [Production Example 44, 3-[2,5-dihydro-3-methyl-(4-methylsulfonylphenyl)-5-oxo-1H-pyrazol-4-yl]-3,5,6,7-tetrahydro-6,6-dimethyl-1-phenyl-3-trifluoromethyl-1H-indole-2,4-dione], the values for the IC50 (against human LCE; in assay [2]) were 8.9 nM and 7 nM, respectively.
As for `Cc1[nH]n(-c2ccc(OC(F)(F)F)cc2)c(=O)c1C1(C(F)(F)F)C(=O)N(c2ccccc2)C2=C1C(=O)CC(C)(C)C2` (centres unmarked) [Production Example 36, 3-[2,5-dihydro-3-methyl-5-oxo-1-(4-trifluoromethoxyphenyl)-1H-pyrazol-4-yl]-3,5,6,7-tetrahydro-6,6-dimethyl-1-phenyl-3-trifluoromethyl-1H-indole-2,4-dione], in assay [2], the IC50 came out at 0.6 nM.
